Laboratory results published in patent US7348025B2, “Small particle liposome aerosols for delivery of anticancer drugs” (priority 1999, dated 2008).
“And” between values parts separate entries of the source, which are not always exact repeats. Equal values may be shown once. Read-outs that look alike come from different tables or passages of the source.

Key:
[1] = Time dependent organ distribution of CPT after intranasal administration of DLPC liposomes; type: in vivo; conditions: other: intranasal instillation, mice, intranasal DLPC liposomal CPT 7 μg per mouse, read-out: CPT in tissue
Description: The mobile phase was 30% acetonitrile and 70% of 0.1% glacial acetic acid. CPT was detected using the Waters 470 scanning fluorescence detector set to an excitation wavelength of 370 nm and an emission wavelength of 440 nm. […] The data were analyzed with the Waters Millenium software. […]
CPT was administered in liposomal formulation prepared with DLPC with initial drug concentration 0.2 mg/ml.
35 μL of suspension was installed to each animal (group of 3 animals was treated for each time point).

[2] = Tissue distribution of CPT after inhalation of CPT liposome aerosol; type: in vivo, Mouse; conditions: mice; for CPT in tissue: individual animals; for concentration at 15 min: mouse, in vivo, 486 ng per mouse, 4 animals, read-out: MEAN (±SD) CPT in tissue
Description: The final suspension was clear. If precipitation occurred, it was reheated to 50-60° C. The preparation was frozen in liquid nitrogen and lyophilized overnight. For use the material was dissolved in sterile water to the appropriate drug concentration, not exceeding 1.0 mg/ml for either drug. The efficiency of incorporation of drug in the liposomes was examined qualitatively by microscopic examination under polarized light. Unincorporated drug was seen as bi-refringent crystals. The efficiency of incorporation was examined by centrifugation of aqueous suspensions of liposomes on Percoll™ gradients. One-tenth ml of suspension was layered over 2 ml of gradient and centrifuged at 2000 rpm for 25-30 minutes. Liposomes layer at the water-Percoll interface, while unincorporated drug was deposited at the bottom of the tube. Many other lipids may be substituted for DLPC in the formulation and use of liposomes for delivery of drugs by aerosol (26).
(§1) The mobile phase was 30% acetonitrile and 70% of 0.1% glacial acetic acid. CPT was detected using the Waters 470 scanning fluorescence detector set to an excitation wavelength of 370 nm and an emission wavelength of 440 nm. […] The data were analyzed with the Waters Millenium software.
The deposited dose was calculated to be 486 ng per mouse. The mean concentrations in lungs and liver were similar with smaller concentrations in the other sites examined. […] Drug was cleared promptly from the lungs so that 15 minutes after stopping nebulization only negligible amounts of drug were present in the lungs. Liver, kidney and spleen had substantial amounts of drug initially which gradually diminished through the one hour of study. […] These studies indicate substantial immediate deposition of drug in the lungs with rapid clearance to the viscera. The amount of drug contributed by absorption from swallowed drug is uncertain.

[3] = Time dependent organ distribution of CPT after intramuscular administration; type: in vivo; conditions: mouse, mice, i.m. CPT in DMSO/saline suspension, read-out: CPT in tissue
Description: as §1
Drug disappeared very slowly from the site of intramuscular injection in the first 12 hours, with only very small concentrations detected in the liver and virtually no drug present at other sites. Concentrations in the blood were negligible throughout the study. The dose administered was the same as that given by intranasal instillation. These findings indicate a speedier and more efficient systemic absorption of drug after pulmonary administration of drug than by the intramuscular route. It is likely that deposition in organs and vascular spaces will increase the opportunity for exposure to albumin molecules and degradation to the carboxyl form of the drug.

[4] = Blood, after 15 minutes inhalation of CPT liposome aerosol
[5] = Kidney, after 15 minutes inhalation of CPT liposome aerosol
[6] = Liver, after 15 minutes inhalation of CPT liposome aerosol
[7] = Spleen, after 15 minutes inhalation of CPT liposome aerosol
[8] = site of injection, 7 µg/mouse, Site of inj.
[9] = whole blood, 7 μg per mouse, Blood

In the case of `CC[C@@]1(O)C(=O)OCc2c1cc1n(c2=O)Cc2cc3ccccc3nc2-1` [CPT, 20-S-camptothecin], the concentration at 0 min ([1]; Kidney) is reported as 542 ± 174 ng/g, the concentration at 15 min ([1]; Kidney) is reported as 190 ± 57 ng/g and the concentration at 30 min ([1]; Kidney) is reported as 49 ± 13 ng/g. For the same molecule, the concentration at 60 min ([1]; Kidney) was 24 ± 21 ng/g, the concentration at 0 min ([1]; Liver) was 651 ± 418 ng/g and the concentration at 15 min ([1]; Liver) was 255 ± 101 ng/g. For the same molecule, the concentration at 30 min ([1]; Liver) was 66 ± 17 ng/g, the concentration at 60 min ([1]; Liver) was 34 ± 7 ng/g and the concentration at 0 min ([1]; Lung) was 1290 ± 657 ng/g. It also gave a concentration at 15 min ([1]; Lung) of 19 ± 3 ng/g, a concentration at 30 min ([1]; Lung) of 36 ± 23 ng/g and a concentration at 60 min ([1]; Lung) of 7 ± 3 ng/g. It also gave a concentration at 0 min ([1]; Spleen) of 351 ± 137 ng/g, a concentration at 15 min ([1]; Spleen) of 84 ± 32 ng/g and a concentration at 30 min ([1]; Spleen) of 21 ± 8 ng/g. It also gave a concentration at 60 min ([1]; Spleen) of 7 ± 2 ng/g, a concentration at 0 min ([1]; whole blood, Blood) of 213 ± 19 ng/g and a concentration at 15 min ([1]; whole blood, Blood) of 53 ± 20 ng/g. The concentration at 30 min ([1]; whole blood, Blood) was 8 ± 3 ng/g, the concentration at 60 min ([1]; whole blood, Blood) was 4 ± 2 ng/g and the CPT in tissue [2, 4] was 7.1 ng/gm and 8.3 ng/gm and 22.6 ng/gm and 17.7 ng/gm. For the same molecule, the CPT in tissue [2, 5] was 21.8 ng/gm and 18.0 ng/gm and 50.0 ng/gm and 29.3 ng/gm, the CPT in tissue [2, 6] was 44.3 ng/gm (2×) and 21.9 ng/gm and 178.0 ng/gm and the CPT in tissue ([2]; Lung, after 15 minutes inhalation of CPT liposome aerosol (0.2 mg/ml in nebulizer)) was 48.0 ng/gm and 27.0 ng/gm and 77.5 ng/gm and 52.0 ng/gm. The CPT in tissue [2, 7] was 16.4 ng/gm and 11.4 ng/gm and 25.0 ng/gm and 12.0 ng/gm, the concentration at 15 min [2, 4] was 13.9 ± 7.5 ng/g and the concentration at 15 min [2, 5] was 29.8 ± 14.3 ng/g. The concentration at 15 min [2, 6] was 72.1 ± 71.4 ng/g, the concentration at 15 min ([2]; Lung, after 15 minutes inhalation of CPT liposome aerosol) was 51.1 ± 20.7 ng/g and the concentration at 15 min [2, 7] was 16.2 ± 6.3 ng/g. For the same molecule, the concentration at 0 min ([3]; 7 μg per mouse, Kidney) was 2 ng/g, the concentration at 30 min ([3]; 7 μg per mouse, Kidney) was 40 ± 14 ng/g and the concentration at 60 min ([3]; 7 μg per mouse, Kidney) was 26 ± 7 ng/g. It also gave a concentration at 1200 min ([3]; 7 μg per mouse, Kidney) of 15 ± 5 ng/g, a concentration at 0 min ([3]; 7 μg per mouse, Spleen) of 2 ± 1 ng/g and a concentration at 30 min ([3]; 7 μg per mouse, Spleen) of 18 ± 9 ng/g. The concentration at 60 min ([3]; 7 μg per mouse, Spleen) was 11 ± 5 ng/g, the concentration at 1200 min ([3]; 7 μg per mouse, Spleen) was 5 ± 1 ng/g and the concentration at 60 min ([3]; 7 µg/mouse, Blood) was 8 ± 1 ng/g. The concentration at 1200 min ([3]; 7 µg/mouse, Blood) was 4 ± 1 ng/g, the concentration at 0 min ([3]; 7 µg/mouse, Liver) was 3 ± 1 ng/g and the concentration at 30 min ([3]; 7 µg/mouse, Liver) was 87 ± 74 ng/g. It also gave a concentration at 60 min ([3]; 7 µg/mouse, Liver) of 136 ± 107 ng/g, a concentration at 1200 min ([3]; 7 µg/mouse, Liver) of 126 ± 116 ng/g and a concentration at 0 min ([3]; 7 µg/mouse, Lung) of 2 ± 1 ng/g. For the same molecule, the concentration at 30 min ([3]; 7 µg/mouse, Lung) was 4 ± 2 ng/g, the concentration at 60 min ([3]; 7 µg/mouse, Lung) was 3 ± 3 ng/g and the concentration at 1200 min ([3]; 7 µg/mouse, Lung) was 4 ± 3 ng/g. For the same molecule, the concentration at 0 min [3, 8] was 6920 ± 265 ng/g, the concentration at 30 min [3, 8] was 4310 ± 1550 ng/g and the concentration at 60 min [3, 8] was 4610 ± 1410 ng/g. For the same molecule, the concentration at 1200 min [3, 8] was 1540 ± 751 ng/g, the concentration at 0 min [3, 9] was 2 ± 1 ng/g and the concentration at 30 min [3, 9] was 12 ± 5 ng/g.
